According to patent US7569695B2, “Dyes for the detection or quantification of desirable target molecules” (Enzo Life Sciences, Inc., priority 2005, dated 2009):

Columns and labels:
[1] = test system: 78 bp amplicon from the anti-sense C construct; assay: Amplification of nucleic acids on the Light Cycler in the presence of dye (Example 33); format: biochemical
Description: A target template was amplified on the Light Cycler (Roche) in the presence of various amounts of Dye 109 from Example 14. As a control, various amounts of SYBR Green (Molecular Probes, Eugene, Oreg.) were also included. The template was a 1:500 dilution of a 78 bp amplicon made in a previous reaction from the anti-sense C construct described in Liu et al. 1997 (J. Virol. 71: 4079-4085). A 2×PCR mix was made up of 20 mM Tris pH 8.3, 50 mM KCl, 4 mM MgCl2, 0.4 mM dCTP, 0.4 mM dGTP, 0.4 mM dATP, 0.8 mM dUTP, […] and […].
The Forward Primer sequence is comprised of 20 nucleotides: 5′ […] 3′ (SEQ ID NO: 1). It is an artificial sequence comprising a fusion of human Ul and HIV sequences. Bases 1-7 (CATGATC) of the first sequence are derived from plasmid pHSD-4 and comprise sequences from the human Ul gene. Bases […] (GATCCGGATGGGAGGTG) of the second sequence are derived from a region of the BAL strain of HIV containing the Tat/Rev splice acceptor site.
The Reverse Primer sequence is comprised of 22 nucleotides: 5′[…] (SEQ ID NO: 2). It is an artificial sequence comprising a fusion of human Ul and HIV sequences. Bases 1-11 (GCACATCCGGA) of the first sequence are derived from plasmid pHSD-4 and comprise sequences from the human Ul gene. Bases […] (GATCCGGATGGGAGGTG) of the second sequence are derived from a region of the BAL strain of HIV containing the Tat/Rev splice acceptor site.
The 78 bp amplicon synthesized with Forward Primer (SEQ ID NO: 1) and Reverse Primer (SEQ ID NO: 2) has the following sequence: 5′ […] 3′ (SEQ ID NO: 3). It is an artificial sequence comprising a fusion of human Ul and HIV sequences. Bases 1-11 (GCACATCCGGA) and 68-78 (TCCGGATGTGC) are derived from plasmid pHSD-4 and comprise sequences from the human Ul gene. Bases […] are derived from a region of the BAL strain of HIV containing the Tat/Rev splice acceptor site.
A master mixture was made up of: • 350 µl of 2×PCR mix described above • 14 µl of 25 mM MgCl2 • 122.5 µl of DEPC treated H2O • 14 ul of 1 u/l ung (Epicentre) • 7 µl of 10 mg/ml BSA (New England Biolabs, Beverly, Mass.) • 7 l Taq polymease (Perkin Elmer)+7 µl of TaqStart (Clontech) • 2.5 µl of target template+2.0 l of various dilutions of dyes were added to 15.5 µl of Master mixture, incubated at 45° C. for 10 minutes and then amplified by: • 1) Melting • 2 minutes @ 95° C. • 2) Cycling • a) Denaturation step: 0 seconds @ 95° C. • b) Annealing step: 5 seconds @ 69° C. for first cycle; subsequent cycles were each reduced by 0.5° C. until 65° C. was reached and all annealing steps in further cycles were carried out at this temperature • c) Extension step: 5 seconds @ 72° C. • 3) After completion of 56 cycles, all samples were maintained at 4° C. until analyzed.
After the amplification reactions were finished, the samples were analyzed by gel electrophoresis. For SYBR Green, the recommended reaction concentration is 1:10,000. As such, the amplification products shown in lanes 5 and 6 using 2 l of […] dilution in a 20 l reaction (final=1:8,000) is approximately representative of the product from the standard procedure. For Dye 109, the reactions are listed in terms of dilutions of a stock of Dye 109 with an OD reading of 200 taken at 495 nm. […] However, when lower dilutions of the dyes were added there was no inhibition of the process.

[2] = test system: 78 bp amplicon of the anti-sense C construct; assay: Amplification on the Light Cycler in the presence of Dye 122 and 109a, 19 cycles (Example 35); format: biochemical
From the text: A target template was amplified on the Light Cycler (Roche) in the presence of various amounts of SYBR Green and Dye 122 from Example 32. In addition, a byproduct from the silica gel chromatography of Dye 109 in step (g) of Example 14 was also used. This compound is believed to have a single protonation of one of the amines of Dye 109 and as such will be termed Dye 109a. The stock of Dye 122 was OD=200 measured at 488 nm and the stock of Dye 109a was OD=200 measured at 498 nm. The template was a 1:50,000 dilution of the 78 bp amplicon of the anti-sense C construct described previously. • A master-mixture was made up of: • 350 µl of 2×PCR mix described in Example 33 • 14 l of 25 mM MgCl2 • 175.0 l of DEPC treated H2O • 7 l of 10 mg/ml BSA (New England Biolabs, Beverly, Mass.) • 7 l Taq polymease (Perkin Elmer)+7 l of TaqStart (Clontech)
2.0 l of target template+2.0 l of various dye dilutions were added to 16 µl of Master mixture, and then amplified as described previously in Example 33 except that the incubation at 45° C. for 10 minutes was eliminated since ung was not used for this series of amplifications. The amplification was stopped after 19 cycles. The results of this series of amplifications are seen in FIG. 3. […] For Dye 109a, similar features were seen where 1:10 was inhibitory (lane 18) and 1:30 was optimal (lanes 19 and 20).

[3] = 1:200 dilution of SYBR Green, lane 7

CCCN(CCCN(C)C)c1cc(/C=C2/Sc3ccccc3N2C)c2ccccc2[n+]1-c1ccccc1 [SYBR Green, reference compound]
amplification (gel analysis, FIG. 1) ([1]; 1:20 dilution of SYBR Green, 56 cycles): strong inhibition of amplification | synthesis of non-target derived amplicons [1, 3]: elimination or suppression of the synthesis of non-target derived amplicons | synthesis of target derived amplicons compared to the reaction without any dye [1, 3]: enhancement of overall synthesis of target derived amplicons | amplification (gel analysis, FIG. 3) ([2]; 1:800 dilution of SYBR Green, lanes 4 and 5): best amplification | amplification (gel analysis, FIG. 3) ([2]; SYBR Green dilutions on either side of 1:800): sharp drop off
